Data as given in paper PMC8252765, “Human Oxygenase Variants Employing a Single Protein Fe^II Ligand Are Catalytically Active” (Angewandte Chemie (International Ed. in English), 2021).
Where a chain is given by its changes, count along the chain named. Read-outs that look alike come from different tables or passages of the source. Values belong to the compound of their own block, whether it stands above or below them.

Legend:
H725A His6-AspH315-758 [1] = target: T1, H725A His6-AspH315-758 (Homo sapiens, UniProt Q12797, H725A); experiment: Steady-state kinetics of H725A AspH by SPE-MS; type: biochemical; conditions: H725A AspH 0.2 μM, parameter for the varied (co)substrate (label), 25 mM HEPES pH 7.5, n=3
T1 construct: containing H679A or H725A His6-AspH315-758 variant (0.2 μM); made in house; host or cells: E. coli BL21 (DE3), pET-28a(+)
T1 sequence (Q12797 315-758 H725A): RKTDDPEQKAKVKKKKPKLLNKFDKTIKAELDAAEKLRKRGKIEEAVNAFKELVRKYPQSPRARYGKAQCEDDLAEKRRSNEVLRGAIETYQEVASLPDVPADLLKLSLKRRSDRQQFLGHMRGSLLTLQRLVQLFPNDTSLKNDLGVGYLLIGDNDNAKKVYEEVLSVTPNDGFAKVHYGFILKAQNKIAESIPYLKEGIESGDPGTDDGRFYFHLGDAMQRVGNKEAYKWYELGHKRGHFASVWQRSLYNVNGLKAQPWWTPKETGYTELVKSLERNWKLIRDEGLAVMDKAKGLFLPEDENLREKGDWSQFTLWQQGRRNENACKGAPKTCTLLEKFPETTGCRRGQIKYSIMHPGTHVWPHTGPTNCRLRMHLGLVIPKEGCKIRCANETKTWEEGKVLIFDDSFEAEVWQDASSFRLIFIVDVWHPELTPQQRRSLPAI
Procedure: page 11: Supporting Figure S6. Kinetic parameters for […] AspH (continues on the following page). Turnover numbers (kapp or k ) and Michaelis constants (Kapp or K ) of the […] AspH-catalysed hydroxylation of […] peptide by SPE- MS (SPE-MS parameters are given in Section 2 of the Supporting Information). […] HEPES (pH 7.5, 20° C). […] Data are shown as the mean average of three independent runs (n = 3; mean ± standard deviation, SD). Turnover numbers (kapp or k ) were calculated from the maximum velocities (vapp or v ) values obtained, cat cat max max assuming ideal active site availability as supported by a reported active site titration of wt AspH.[4] (a) Time course of the […] AspH for Fe(II) in the absence of LAA; (c) Kapp of […] AspH for Fe(II) in the absence m of LAA. (d) Time course of the […] AspH for Fe(II) in the presence of LAA; (f) Kapp of […] AspH for Fe(II) in the m presence of LAA. […] AspH variant-catalysed hydroxylation reaction of […] (k) hydroxylation rates used to determine kinetic parameters of […] AspH for […]. […] AspH for […] peptide substrate. […]

H679A His6-AspH315-758 [2] = target: T2, H679A His6-AspH315-758 (Homo sapiens, UniProt Q12797, H679A); experiment: Steady-state kinetics of H679A AspH by SPE-MS; type: biochemical; conditions: H679A AspH 0.2 μM, parameter for the varied (co)substrate (label), 25 mM HEPES pH 7.5, n=3
T2 construct: containing H679A or H725A His6-AspH315-758 variant (0.2 μM); made in house; host or cells: E. coli BL21 (DE3), pET-28a(+)
T2 sequence (Q12797 315-758 H679A): T1 sequence (Q12797 315-758 H725A) with H365A, A411H
Procedure: Supporting Figure S5. […] Turnover […]
numbers (kapp or k ) and Michaelis constants (Kapp or K ) of the H679A AspH variant were determined in […]
MS (SPE-MS parameters are given i n Section 2 of the Supporting Information ). Conditions: 0.2 μM H679A His6- […]
HEPES (pH 7.5, 20° C). Measurement times were normalized to the first sample injection analysed after the […]
Data are shown as the mean average of three independent runs (n = 3; mean ± standard deviation, SD).
Turnover numbers (kapp or k ) were calculated from the maximum velocities (vapp or v ) values obtained, […]
assuming ideal active site availability as supported by a reported active site titration of wt AspH.[4] […]
substrate in the absence of LAA for the shown Fe(II) concentrations (conditions: 0.2 μM H679A His6-AspH315- […]
substrate in the presence of LAA for the shown Fe(II) concentrations (conditions: 0.2 μM H679A His6-AspH315- […]

[3] = system: γ‐butyrobetaine hydroxylase; design: method as in PMID 22730246; conditions: reported value; cited from earlier work
H725A His6-AspH315-758 [4] = target: T1, H725A His6-AspH315-758; experiment: H725A AspH variant SPE-MS inhibition assay; type: biochemical
H679A His6-AspH315-758 [5] = target: T2, H679A His6-AspH315-758; experiment: H679A AspH variant SPE-MS inhibition assay; type: biochemical
wt AspH = conditions: cited from earlier work
wt His6-AspH315-758 = system: T3, wt His6-AspH315-758; experiment: Steady-state kinetics of wt AspH by SPE-MS; type: biochemical, human; conditions: wt AspH 0.1 μM, parameter for the varied (co)substrate (label), 25 mM HEPES pH 7.5, 50 mM NaCl, n=3
T3 construct: Conditions: 0.1 μM wt His6-AspH315-758 using; His6 (N); made in house
Procedure: Supporting Figure S4. Kinetic parameters for wt AspH (continues on the following page). Turnover numbers […]
ammonium iron(II) sulfate hexahydrate (FAS, (NH 4)2Fe(SO 4)2·6H2O), both in the presence and absence of L - ascorbic acid (LAA ) monitoring the AspH-catalysed hydroxylation of the hFX-EGFD186-124-4Ser peptide (Supporting Figure S2a) by SPE-MS (SPE-MS parameters are given in Section 2 of the Supporting Information).
Conditions: 0.1 μM wt His6-AspH315-758 using
C; note, to increase enzyme activity, 50 mM NaCl was added to the reaction buffer). Measurement times were normalized to the first sample injection analysed after the addition of the Enzyme Mixture to the Substrate Mixture […]
Data are shown as the mean average of three independent runs (n = 3; mean ± standard deviation, SD). Turnover numbers (kapp) were calculated from the […]
maximum velocities (vapp ) values obtained, assuming ideal active site availability as supported by a reported […]
active site titration of wt AspH.[4]
(a) Time course of the wt AspH-catalysed hydroxylation reaction of the hFX-EGFD186-124-4Ser peptide substrate […]
and 4.0 μM hFX-EGFD1 86-124-4Ser); (b) hydroxylation rates used to determine kinetic parameters of wt AspH for Fe(II) in the absence of LAA; ( c) Kapp of wt AspH for Fe(II) in the absence of LAA.
(d) Time course of the wt AspH-catalysed hydroxylation reaction of the hFX-EGFD186-124-4Ser peptide substrate in the presence of LAA for the shown Fe(II) concentrations (conditions: 0.1 μM wt His6-AspH315-758, 100 μM […]
parameters of wt AspH for Fe(II) in the presence of LAA; (f) Kapp of wt AspH for Fe(II) in the presence of LAA. […]
(g) Time course of the wt AspH-catalysed hydroxylation reaction of the hFX-EGFD186-124-4Ser peptide substrate […]
(1 picture or pasted object on this page, not shown here)

[6] = 0.1 μM H725A AspH, 4.0 μM hFX-EGFD1_86-124-4Ser, 215 μM 2OG, 10 μM Fe^II, SPE-MS, n=2, read-out: IC50
[7] = 0.1 μM H679A AspH, 4.0 μM hFX-EGFD1_86-124-4Ser, 110 μM 2OG, 4 μM Fe^II, SPE-MS, n=2, read-out: IC50

Compound: O=C(O)CCC(=O)C(=O)O [2OG, 2‐oxoglutarate]
Kmapp (H725A His6-AspH315-758 [1]; with LAA (400 μM)): 211 ± 65 µM
kcatapp (H725A His6-AspH315-758 [1]; with LAA (400 μM)): 0.08 ± 0.01 s⁻¹
Kmapp (H679A His6-AspH315-758 [2]; with LAA (400 μM)): 109 ± 20 µM
kcatapp (H679A His6-AspH315-758 [2]; with LAA (400 μM)): 0.18 ± 0.01 s⁻¹
2OG Kmapp‐value [3]: 150 to 470 µM

Compound: [Cl-].[Cl-].[Co+2] [CoCl2]
IC50 (H725A His6-AspH315-758 [4]; n=2, read-out: IC50): 3000 ± 500 nM
IC50 (H679A His6-AspH315-758 [5]; n=2, read-out: IC50): 1500 ± 200 nM
IC50 (wt AspH): 400 ± 200 nM

IC50 (H725A His6-AspH315-758 [4]; [6]): > 40000 nM
IC50 (H679A His6-AspH315-758 [5]; [7]): 23100 ± 8600 nM
Compound: [Cl][Mn][Cl] [MnCl2]
IC50 (wt AspH; wt AspH, 2 μM Fe^II, 3 μM 2OG): 5100 ± 1100 nM

Compound: O=S(=O)([O-])[O-].[Ni+2] [NiSO4]
IC50 (H725A His6-AspH315-758 [4]; read-out: IC50): 1800 ± 400 nM
IC50 (H679A His6-AspH315-758 [5]; read-out: IC50): 2700 ± 400 nM
IC50 (wt AspH): 170 ± 80 nM

Compound: O=C(O)CNC(=O)C(=O)O [N‐oxalyl‐glycine (NOG), N‐oxalylglycine]
IC50 (H725A His6-AspH315-758 [4]; 0.1 μM H725A AspH, 4.0 μM hFX-EGFD1_86-124-4Ser, 215 μM 2OG, 10 μM Fe^II, SPE-MS, n=2): inactive
IC50 (H725A His6-AspH315-758 [4]; 0.1 μM H725A AspH, 4.0 μM hFX-EGFD1_86-124-4Ser, 215 μM 2OG, 10 μM Fe^II, SPE-MS, n=2, listed as NOG): does not apparently inhibit
IC50 (H679A His6-AspH315-758 [5]; 0.1 μM H679A AspH, 4.0 μM hFX-EGFD1_86-124-4Ser, 110 μM 2OG, 4 μM Fe^II, SPE-MS, n=2): inactive
IC50 (H679A His6-AspH315-758 [5]; 0.1 μM H679A AspH, 4.0 μM hFX-EGFD1_86-124-4Ser, 110 μM 2OG, 4 μM Fe^II, SPE-MS, n=2, listed as NOG): does not apparently inhibit
IC50 (wt AspH): 1100 ± 300 nM

IC50 (H725A His6-AspH315-758 [4]; [6]): 160 ± 10 nM
IC50 (H679A His6-AspH315-758 [5]; [7]): 160 ± 10 nM
Compound: CC(=O)[O-].CC(=O)[O-].[Zn+2] [Zn(OAc)2]
IC50 (wt AspH; wt AspH, 2 μM Fe^II, 3 μM 2OG): 50 ± 10 nM

Compound: O=C(O)c1ccnc(C(=O)O)c1 [pyridine‐2,4‐dicarboxylic acid]
IC50 (H725A His6-AspH315-758 [4]; read-out: IC50): 11200 ± 1400 nM
IC50 (H679A His6-AspH315-758 [5]; read-out: IC50): 130 ± 10 nM
IC50 (wt AspH; wt AspH, 2 μM Fe^II, 3 μM 2OG): 30 ± 10 nM
IC50 (wt AspH; wt AspH, at 3 μM 2OG): ~30 nM
IC50 (wt AspH; wt AspH, at 200 μM 2OG): ~100 nM

Kmapp (H725A His6-AspH315-758 [1]; with LAA (400 μM)): 8.1 ± 1.8 µM
kcatapp (H725A His6-AspH315-758 [1]; with LAA (400 μM)): 0.10 ± 0.01 s⁻¹
Kmapp (H725A His6-AspH315-758 [1]; without LAA): 12.3 ± 3.0 µM
kcatapp (H725A His6-AspH315-758 [1]; without LAA): 0.09 ± 0.01 s⁻¹
Kmapp (H679A His6-AspH315-758 [2]; with LAA (400 μM)): 2.7 ± 0.5 µM
kcatapp (H679A His6-AspH315-758 [2]; with LAA (400 μM)): 0.19 ± 0.01 s⁻¹
Kmapp (H679A His6-AspH315-758 [2]; without LAA): 4.4 ± 0.8 µM
kcatapp (H679A His6-AspH315-758 [2]; without LAA): 0.18 ± 0.01 s⁻¹
Compound: ammonium iron(II) sulfate hexahydrate [Fe^II]
Kmapp (wt His6-AspH315-758; with LAA (100 μM)): 4.3 ± 1.6 µM
kcatapp (wt His6-AspH315-758; with LAA (100 μM)): 0.27 ± 0.04 s⁻¹
Kmapp (wt His6-AspH315-758; without LAA): 7.2 ± 2.6 µM
kcatapp (wt His6-AspH315-758; without LAA, hFX-EGFD1 peptide hydroxylation): 0.24 ± 0.04 s⁻¹
